Patent US7728132B2, “Compositions for stabilizing chlorinated water to sunlight decomposition, and methods of preparation thereof” (Enviro Tech Chemical Services, Inc., priority 2007, dated 2010)

Legend:
[1] = granules in pool water; cited from earlier work
[2] = as reported for prior-art products; cited from earlier work
[3] = Dispensing and dissolution of product in swimming pool; assay type: physicochemical; conditions: 5.85 lb dry solid in 20,000 gallon pool, recirculation pump running
Method: The gallon jugs of Examples 2 and 4 were taken to a residential swimming pool of 20,000 gallons estimated volume. The water temperature was 76° F. The sample of Example 2 was mildly shaken and then using a single motion, poured into the 8 foot deep end of the pool near the return pipe from the pump where the turbulence was high. […] Next the gallon jug of Example 4 was emptied into the pool in the same vicinity and same manner. […] The jug was rinsed clean with two aliquots of pool water.
Cyanuric acid wetcake (1405 lb) containing 66% solids is introduced to a 50 cubic foot stainless steel ribbon blender powered by dual 15 HP motors. Soft water (43.9 lb) is added while mixing in the blender. With further blending, solid sodium hydroxide microbeads (288.3 lb) are introduced over a three-minute period. The mixture becomes very hot as evidenced by the large amount of steam that escapes the reaction mixture into the atmosphere. The outside skin of the ribbon blender becomes too hot to touch and a temperature of 130° F. is measured with a digital infrared thermometer. […]
A one-gallon jug of Instant Pool Water Conditioner (Natural Chemistry Inc. of Norwalk, Conn.) was purchased from a local pool store. […] Using a pool brush, the undissolved material was readily dispersed and dissolved with a sweeping action. […]

O=c1[nH]c(=O)[nH]c(=O)[nH]1 [cyanuric acid]
time to dissolve [1]: several days

O=c1[n-]c(=O)[nH]c(=O)[nH]1.[Na+] [monosodium cyanurate]
pH [2]: neutral

O=c1[n-]c(=O)[nH]c(=O)[nH]1.[Na+] [Prospective Example 8, monosodium cyanurate]
time until all is dissolved [3]: ≤ 30 min
